Reference: patent US9890142B2, “PDE4 inhibitor” (Meiji Seika Pharma Co., Ltd., priority 2013, dated 2018)

tested on: PDE4; experiment: Evaluation of PDE4 inhibition (scintillation proximity assay); type: biochemical; conditions: inhibition rate relative to control, test compound at 1 μM
Method in brief: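 PDE4 was incubated 120 min at room temperature with [3H]-cAMP and compound in 50 mM Tris-HCl pH 7.5, 8.3 mM MgCl2, 1.7 mM EDTA, 0.3 mg/mL BSA. Product captured on ZnSO4-containing YSi-SPA beads and counted; inhibition calculated against DMSO control after no-enzyme blank subtraction.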

Q: Which “PDE4 inhibitory activity (1 μM (%))” value does the source give for COc1c(Cl)cc2nc(N3CCNC[C@@H]3C)oc2c1C [Example 161, (S)-5-Chloro-6-methoxy-7-methyl-2-(2-methylpiperazin-1-yl)benzoxazole] here?
A: The value was 19%.

Q: For Cc1c(O)c(Cl)cc2nc(N3CCNC[C@@H]3C)oc12 [Example 162, (S)-5-Chloro-6-hydroxy-7-methyl-2-(2-methylpiperazin-1-yl)benzoxazole], which “PDE4 inhibitory activity (1 μM (%))” value is on record?
A: The value was 35%.

Q: With C[C@H]1CNCCN1c1nc2c(Br)cc(Cl)cc2o1 [Example 163, (S)-4-Bromo-6-chloro-2-(2-methylpiperazin-1-yl)benzoxazole] as the compound, how does the “PDE4 inhibitory activity (1 μM (%))” value read?
A: The value was 52%.

Q: Which “PDE4 inhibitory activity (1 μM (%))” value does the source give for C[C@H]1CNCCN1c1nc2c(-c3ccco3)cc(Cl)cc2o1 [Example 164, (S)-6-Chloro-4-(furan-2-yl)-2-(2-methylpiperazin-1-yl)benzoxazole] here?
A: Its value is 75%.

Q: For C[C@@H]1CNCCN1c1nc2c(-c3ccco3)cc(Cl)cc2o1 [Example 165, (R)-6-Chloro-4-(furan-2-yl)-2-(2-methylpiperazin-1-yl)benzoxazole], which “PDE4 inhibitory activity (1 μM (%))” value is on record?
A: Its value is 31%.

Q: C[C@H]1CNCCN1c1nc2c(-n3cccn3)cc(Cl)cc2o1 [Example 166, (S)-6-Chloro-2-(2-methylpiperazin-1-yl)-4-(1H-pyrazol-1-yl)benzoxazole] was tested. Which “PDE4 inhibitory activity (1 μM (%))” value did it give?
A: The value was 71%.

Q: With C[C@H]1CNCCN1c1nc2cc(Br)ccc2o1 [Example 167, (S)-5-Bromo-2-(2-methylpiperazin-1-yl)benzoxazole] as the compound, how does the “PDE4 inhibitory activity (1 μM (%))” value read?
A: The value was 16%.

Q: With COc1cc(C#N)cc2nc(N3CCNC[C@@H]3C)oc12 [Example 168, (S)-5-Cyano-7-methoxy-2-(2-methylpiperazin-1-yl)benzoxazole] as the compound, how does the “PDE4 inhibitory activity (1 μM (%))” value read?
A: Its value is 13%.

Q: COc1c(Cl)cc2nc(N3CCNC[C@@H]3C)oc2c1OC [Example 169, (S)-5-Chloro-6,7-dimethoxy-2-(2-methylpiperazin-1-yl)benzoxazole] was tested. Which “PDE4 inhibitory activity (1 μM (%))” value did it give?
A: The value was 22%.

Q: Cc1cc2oc(N3CCNC[C@@H]3C)nc2cc1Cl [Example 170, (S)-5-Chloro-6-methyl-2-(2-methylpiperazin-1-yl)benzoxazole] was tested. Which “PDE4 inhibitory activity (1 μM (%))” value did it give?
A: The value was 15%.

Q: With COc1cc2oc(N3CCNC[C@@H]3C)nc2cc1Cl [Example 171, (S)-5-Chloro-6-methoxy-2-(2-methylpiperazin-1-yl)benzoxazole] as the compound, how does the “PDE4 inhibitory activity (1 μM (%))” value read?
A: Its value is 14%.

Q: For Cc1cc(N2CCCC2)cc2nc(N3CCNC[C@@H]3C)oc12 [Example 172, (S)-7-Methyl-5-(pyrrolidin-1-yl)-2-(2-methylpiperazin-1-yl)benzoxazole], which “PDE4 inhibitory activity (1 μM (%))” value is on record?
A: Its value is <10%.

Q: For Cc1cc(-c2ccsc2)cc2nc(N3CCNC[C@@H]3C)oc12 [Example 173, (S)-7-Methyl-5-(thiophen-3-yl)-2-(2-methylpiperazin-1-yl)benzoxazole], which “PDE4 inhibitory activity (1 μM (%))” value is on record?
A: The value was 35%.

Q: Which “PDE4 inhibitory activity (1 μM (%))” value does the source give for CCc1cc(Cl)cc2nc(N3CCNC[C@H]3C)oc12 [Example 174, (R)-5-Chloro-7-ethyl-2-(2-methylpiperazin-1-yl)benzoxazole] here?
A: Its value is 21%.

Q: With FC(F)(F)Oc1c(Cl)cc(-c2nccs2)c2oc(N3CCNCC3)nc12 [Example 175, 5-Chloro-2-(piperazin-1-yl)-7-(thiazol-2-yl)-4-(trifluoromethoxy)benzoxazole] as the compound, how does the “PDE4 inhibitory activity (1 μM (%))” value read?
A: The value was 96%.

Q: C[C@@H]1CN(c2nc3c(OC(F)(F)F)c(Cl)cc(-c4nccs4)c3o2)CCN1 [Example 176, (R)-5-Chloro-2-(3-methylpiperazin-1-yl)-7-(thiazol-2-yl)-4-(trifluoromethoxy)benzoxazole] was tested. Which “PDE4 inhibitory activity (1 μM (%))” value did it give?
A: Its value is 91%.

Q: Which “PDE4 inhibitory activity (1 μM (%))” value does the source give for C[C@H]1CN(c2nc3c(OC(F)(F)F)c(Cl)cc(-c4nccs4)c3o2)CCN1 [Example 177, (S)-5-Chloro-2-(3-methylpiperazin-1-yl)-7-(thiazol-2-yl)-4-(trifluoromethoxy)benzoxazole] here?
A: Its value is 93%.

Q: With C[C@@H]1CNCCN1c1nc2c(C(F)(F)F)c(Cl)cc(-c3ccccn3)c2o1 [Example 178, (R)-5-Chloro-2-(2-methylpiperazin-1-yl)-7-(pyridin-2-yl)-4-(trifluoromethyl)benzoxazole] as the compound, how does the “PDE4 inhibitory activity (1 μM (%))” value read?
A: Its value is 33%.

Q: How did the “PDE4 inhibitory activity (1 μM (%))” value turn out when C[C@@H]1CNCCN1c1nc2c(C(F)(F)F)c(Cl)cc(-c3nccs3)c2o1 [Example 179, (R)-5-Chloro-2-(2-methylpiperazin-1-yl)-7-(thiazol-2-yl)-4-(trifluoromethyl)benzoxazole] was run?
A: Its value is 79%.

Q: How did the “PDE4 inhibitory activity (1 μM (%))” value turn out when C[C@@H]1CNCCN1c1nc2c(C(F)(F)F)c(Cl)cc(-n3cccn3)c2o1 [Example 180, (R)-5-Chloro-2-(2-methylpiperazin-1-yl)=7-(1H-pyrazol-1-yl)-4-(trifluoromethyl)benzoxazole] was run?
A: Its value is 43%.
